Measurements taken from patent US9815851B2, “Pyrrolo carboxamides as modulators of orphan nuclear receptor RAR-related orphan receptor-gamma (RORγ, NR1F3) activity and for the treatment of chronic inflammatory and autoimmune diseases” (PHENEX PHARMACEUTICALS AG, priority 2011, dated 2017).
Where two headings read alike, the source gives them in different places.

Columns and labels:
[1] = biological target: T1, RORγ ligand binding domain (LBD) (Homo sapiens, UniProt P51449); experiment: TR-FRET Activity Assay (ligand sensing, RORγ-LBD / coactivator peptide interaction, LANCE); type: biochemical
T1 construct: made in house; host or cells: E. coli BL-21 (BL3), vector pDEST15
T1 sequence (P51449 269-508 limits assumed): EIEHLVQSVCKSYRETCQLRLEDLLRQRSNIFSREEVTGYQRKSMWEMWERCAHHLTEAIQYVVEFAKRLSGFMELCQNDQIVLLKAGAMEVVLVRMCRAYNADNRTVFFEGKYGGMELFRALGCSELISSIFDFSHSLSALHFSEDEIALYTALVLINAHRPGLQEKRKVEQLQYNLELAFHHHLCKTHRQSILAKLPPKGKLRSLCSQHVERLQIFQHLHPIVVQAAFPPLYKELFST

RORγ = biological target: T2, RORγ (UniProt P51449); experiment: RORγ Gal4 Reporter Gene Assay in 293T cells (firefly and renilla luciferase); type: cell-based, human
T2 sequence (P51449 1-518): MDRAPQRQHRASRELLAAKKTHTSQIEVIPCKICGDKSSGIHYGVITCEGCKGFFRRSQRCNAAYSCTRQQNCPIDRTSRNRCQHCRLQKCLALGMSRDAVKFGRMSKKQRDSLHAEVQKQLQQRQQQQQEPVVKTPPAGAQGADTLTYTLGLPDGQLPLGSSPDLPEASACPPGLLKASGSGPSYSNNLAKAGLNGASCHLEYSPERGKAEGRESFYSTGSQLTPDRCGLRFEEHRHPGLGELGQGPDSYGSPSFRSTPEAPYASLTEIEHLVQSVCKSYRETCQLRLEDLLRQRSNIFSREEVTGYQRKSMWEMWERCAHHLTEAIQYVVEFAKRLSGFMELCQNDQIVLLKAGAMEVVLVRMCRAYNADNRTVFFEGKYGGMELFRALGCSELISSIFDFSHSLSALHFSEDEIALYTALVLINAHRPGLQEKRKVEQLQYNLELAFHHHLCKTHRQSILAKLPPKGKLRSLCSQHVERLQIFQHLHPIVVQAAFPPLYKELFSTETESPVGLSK

[2] = first value of the cell FRET/FF/REN, TR-FRET activity assay, read-out: pIC50 (FRET) (converted)
[3] = second value of the cell, Gal4 reporter gene assay in 293T cells, firefly luciferase
[4] = third value of the cell, Gal4 reporter gene assay in 293T cells, renilla normalised luciferase

Row | IC50 [1, 2] | pIC50 (FF) (RORγ; [3]) | pIC50 (REN) (RORγ; [4]) | SMILES | IC50 [1] | pIC50 (FF) (RORγ) | pIC50 (REN) (RORγ)
1 | 200 nM | 7.4 | 7.4 | Cc1c(C(=O)NC2CCOCC2)cc(-c2cc(C(C)(C)C)c3c(c2)C2(CCO3)CC2)n1CC1CCCCC1 [1/93] |  |  | 
2 |  |  |  | COC(C)(C)CNC(=O)c1cc(-c2cc(C(C)(C)C)c3c(c2)C2(CCO3)CC2)n(CC2CCCCC2)c1C [1/97] | 251 nM | 6.6/7.1/7.0 | 6.6/7.1/7.0
3 |  |  |  | Cc1c(C(=O)NCC2(O)CCOCC2)cc(-c2cc(C(C)(C)C)c3c(c2)C2(CCO3)CC2)n1CC1CCCCC1 [1/99] | 398 nM | 6.4/7.1/7.2 | 6.4/7.1/7.2
4 | 251 nM | 7.2 | 7.2 | Cc1c(C(=O)NCC2COC2)cc(-c2cc(C(C)(C)C)c3c(c2)C2(CCO3)CC2)n1CC1CCCCC1 [1/100] |  |  | 
5 | 398 nM | 7.3 | 7.3 | Cc1c(C(=O)NCC(C)(C)NS(C)(=O)=O)cc(-c2cc(C(C)(C)C)c3c(c2)C2(CCO3)CC2)n1CC1CCCCC1 [1/103] |  |  | 
6 |  |  |  | Cc1c(C(=O)NCCS(C)(=O)=O)cc(-c2cc(C(C)(C)C)c3c(c2)C2(CCO3)CC2)n1CC1CCCCC1 [1/104] | 501 nM | 6.3/6.8/6.8 | 6.3/6.8/6.8
7 |  |  |  | Cc1c(C(N)=O)cc(-c2cc(C(C)(C)C)c3c(c2)C2(CCO3)CC2)n1CC1CCCCC1 [1/105] | 251 nM | 6.6/6.5/6.5 | 6.6/6.5/6.5
8 | 12600 nM | < 4.7 | < 4.7 | Cc1c(C(=O)NCC(C)(C)O)cc(-c2cc(C(C)N3CCOCC3)cc(C(C)(C)C)c2)n1CC1CCCCC1 (stereo not drawn) [1/109] |  |  | 
9 | 794 nM | 7.3 | 7.4 | Cc1c(C(=O)NCC(C)(C)O)cc(-c2cc(C(=O)N(C)C(C)(C)C)cc(C3(C)CC3)c2)n1CC1CCCCC1 [1/110] |  |  | 
10 |  |  |  | Cc1c(C(=O)NCC(C)(C)O)cc(-c2cc(C(=O)NC(C)(C)C)cc(C3(C)CC3)c2)n1CC1CCCCC1 [1/111] | 398 nM | 6.4/7.4/7.4 | 6.4/7.4/7.4
11 | 501 nM | 7.1 | 7.1 | Cc1c(C(=O)NCC(C)(C)O)cc(-c2cc(C(=O)NC(C)C)cc(C3(C)CC3)c2)n1CC1CCCCC1 [1/112] |  |  | 
12 | 3980 nM | < 4.7 | < 4.7 | Cc1c(C(=O)NCC(O)(C(F)(F)F)C(F)(F)F)cc(-c2cc(C(C)(C)C)cc(C(C)(C)C)c2)n1CC1CCCCC1 [1/113] |  |  | 
13 | 251 nM | 6.7 | 6.8 | Cc1c(C(=O)NC2COC2)cc(-c2cc(C(C)(C)C)cc(C(C)(C)C)c2)n1CC1CCC(C)CC1 (stereo not drawn) [1/114] |  |  | 
14 | 251 nM | 7.3 | 7.3 | Cc1c(C(=O)NC2COC2)cc(-c2cc(C(C)(C)C)cc(C(C)(C)C)c2)n1CC1CCCCCC1 [1/115] |  |  | 
15 | 126 nM | 6.9/6.9/6.9 | 6.9/6.9/6.9 | Cc1c(C(=O)NC2COC2)cc(-c2cc(C(C)(C)C)cc(C(C)(C)C)c2)n1CCC1CCCC1 [1/116] |  |  | 
16 | 501 nM | 6.8 | 7.0 | Cc1c(C(=O)NC2COC2)cc(-c2cc(C(C)(C)C)cc(C(C)(C)C)c2)n1CC1CC2CCC1C2 (stereo not drawn) [1/117] |  |  | 
17 | 631 nM | 6.5 | 6.6 | Cc1c(C(=O)NC2COC2)cc(-c2cc(C(C)(C)C)cc(C(C)(C)C)c2)n1CC1Cc2ccccc2C1 [1/118] |  |  | 
18 |  |  |  | Cc1c(C(=O)NC2COC2)cc(-c2cc(C(C)(C)C)cc(C(C)(C)C)c2)n1CC1CCCC(C)C1 (stereo not drawn) [1/119] | 200 nM | 6.7/7.4/7.3 | 6.7/7.4/7.3
19 |  |  |  | Cc1c(C(=O)NC2COC2)cc(-c2cc(OCC(C)(C)C)nc(C(C)(C)C)c2)n1CC1CCCCC1 [1/120] | 126 nM | 6.9/7.1/7.3 | 6.9/7.1/7.3
20 |  |  |  | Cc1c(C(=O)NC2COC2)cc(-c2cc(OCC(C)C)nc(C(C)(C)C)c2)n1CC1CCCCC1 [1/121] | 126 nM | 6.9/7.0/7.2 | 6.9/7.0/7.2
21 | 501 nM | 6.8 | 6.8 | Cc1c(C(=O)NCC(C)(C)NS(C)(=O)=O)cc(-c2ccc(S(=O)(=O)NC(C)(C)C)c(C(C)(C)C)c2)n1CC1CCCCC1 [1/123] |  |  | 
22 |  |  |  | Cc1c(C(=O)NCC2(O)CCOCC2)cc(-c2ccc(S(=O)(=O)NC(C)(C)C)c(C(C)(C)C)c2)n1CC1CCCCC1 [1/124] | 631 nM | 6.2/7.5/7.5 | 6.2/7.5/7.5
23 | 794 nM | 7.4 | 7.4 | Cc1c(C(=O)NCC(C)(C)C(N)=O)cc(-c2ccc(S(=O)(=O)NC(C)(C)C)c(C(C)(C)C)c2)n1CC1CCCCC1 [1/125] |  |  | 
24 | 631 nM | 7.1 | 7.0 | Cc1c(C(=O)NCC2COC2)cc(-c2ccc(S(=O)(=O)NC(C)(C)C)c(C(C)(C)C)c2)n1CC1CCCCC1 [1/126] |  |  | 
25 |  |  |  | Cc1c(C(=O)NCC2(C)COC2)cc(-c2ccc(S(=O)(=O)NC(C)(C)C)c(C(C)(C)C)c2)n1CC1CCCCC1 [1/127] | 501 nM | 6.3/7.5/7.4 | 6.3/7.5/7.4
26 | 1580 nM | 7.3 | 7.3 | Cc1c(C(=O)NCC(C)(C)C(=O)O)cc(-c2ccc(S(=O)(=O)NC(C)(C)C)c(C(C)(C)C)c2)n1CC1CCCCC1 [1/129] |  |  | 
27 | 794 nM | 6.8 | 6.8 | Cc1c(C(=O)NCCS(C)(=O)=O)cc(-c2ccc(S(=O)(=O)NC(C)(C)C)c(C(C)(C)C)c2)n1CC1CCCCC1 [1/130] |  |  | 
28 |  |  |  | Cc1c(C(=O)NC2CCOCC2)cc(-c2ccc(S(=O)(=O)NC(C)(C)C)c(C(C)(C)C)c2)n1CC1CCCCC1 [1/131] | 501 nM | 6.3/7.8/7.8 | 6.3/7.8/7.8
29 |  |  |  | Cc1c(C(=O)NC2C[S+]([O-])C2)cc(-c2ccc(S(=O)(=O)NC(C)(C)C)c(C(C)(C)C)c2)n1CC1CCCCC1 (stereo not drawn) [2/1] | 794 nM | 6.1/6.5/6.5 | 6.1/6.5/6.5
30 | 1580 nM | 6.5 | 6.7 | Cc1c(C(=O)NC2C[S+]([O-])C2)cc(-c2cc(C(C)C)c3c(c2)C(C)(C)N(C(C)C)S3(=O)=O)n1CC1CCCCC1 (stereo not drawn) [2/3] |  |  | 

Row | SMILES | IC50 [1, 2] | pIC50 (FF) (RORγ; [3]) | pIC50 (REN) (RORγ; [4]) | IC50 [1] | pIC50 (FF) (RORγ) | pIC50 (REN) (RORγ)
31 | Cc1c(C(=O)NC2CC2)cc(-c2cc(C(C)(C)C)c3c(c2)C2(CCO3)CC2)n1CC1CCCCC1 [1/92] | 200 nM | 7.0 | 6.9 |  |  | 
32 | Cc1c(C(=O)NCC2CCOCC2)cc(-c2cc(C(C)(C)C)c3c(c2)C2(CCO3)CC2)n1CC1CCCCC1 [1/94] | 501 nM | 7.4 | 7.3 |  |  | 
33 | Cc1c(C(=O)N[C@H]2CCOC2)cc(-c2cc(C(C)(C)C)c3c(c2)C2(CCO3)CC2)n1CC1CCCCC1 [1/95] | 158 nM | 7.0 | 7.1 |  |  | 
34 | Cc1c(C(=O)N[C@@H]2CCOC2)cc(-c2cc(C(C)(C)C)c3c(c2)C2(CCO3)CC2)n1CC1CCCCC1 [1/96] | 200 nM | 6.7 | 6.8 |  |  | 
35 | Cc1c(C(=O)NCC(C)(C)C(N)=O)cc(-c2cc(C(C)(C)C)c3c(c2)C2(CCO3)CC2)n1CC1CCCCC1 [1/98] | 631 nM | 7.3 | 7.3 |  |  | 
36 | Cc1c(C(=O)NCC2(C)COC2)cc(-c2cc(C(C)(C)C)c3c(c2)C2(CCO3)CC2)n1CC1CCCCC1 [1/101] | 251 nM | 7.2 | 7.2 |  |  | 
37 | Cc1c(C(=O)NCC2CC2)cc(-c2cc(C(C)(C)C)c3c(c2)C2(CCO3)CC2)n1CC1CCCCC1 [1/102] | 501 nM | 6.4 | 6.4 |  |  | 
38 | Cc1c(C(=O)NC2COC2)cc(-c2cc(CN3CCOCC3)cc(C(C)(C)C)c2)n1CC1CCCCC1 [1/108] | 7940 nM | 7.2 | 7.3 |  |  | 
39 | Cc1c(C(=O)NC2COC2)cc(-c2cc(C(C)(C)C)nc(C(C)(C)C)c2)n1CC1CCCCC1 [1/122] | 158 nM | 7.0 | 7.0 |  |  | 
40 | Cc1c(C(=O)NCCCCCO)cc(-c2ccc(S(=O)(=O)NC(C)(C)C)c(C(C)(C)C)c2)n1CC1CCCCC1 [1/128] | 501 nM | 7.2 | 7.2 |  |  | 
41 | Cc1c(C(=O)NC2COC2)cc(-c2cc(C(F)(F)F)c3c(c2)C2(CCO3)CC2)n1CC1CCCCC1 [1/132] | 631 nM | 6.8 | 6.8 |  |  | 
42 | Cc1c(C(=O)NC2COC2)cc(-c2cc(C(=O)N(C)C(C)(C)C)nc(C(C)(C)C)c2)n1CC1CCCCC1 [6/1] | 2000 nM | 6.7 | 6.7 |  |  | 
